Assay results taken from patent US8846708B2, “Salt of a pyrimidin derivative” (Laboratorios Senosiain S.A. de C.V., priority 2010, dated 2014).

Experiments:
[1] = cited from earlier work
[2] = test system: proteins; conditions: cited from earlier work
[3] = physchem
Experimental: Additionally, a comparative solubility test was performed between rosuvastatin calcium and rosuvastatin lysine.

[4] = in vivo; cited from earlier work
[5] = Description / flowability of the salt powder; format: physicochemical

| Solubility, Methanol [3] | solubility ([3]; aqueous buffer) [µg/mL] | solubility ([3]; organic solvent or mixture) [µg/mL] | solubility ([3]; water) [µg/mL] | Description: flowability [5] | SMILES | Solubility in water [1] | Binding to proteins [2] [%] | Solubility, HCl 10% [3] | Absolute bioavailability [4] | Excretion in feces [4] [%] | Excretion in urine [4] [%] |
| --- | --- | --- | --- | --- | --- | --- | --- | --- | --- | --- | --- |
| – | – | – | – | – | CC(C)c1nc(N(C)S(C)(=O)=O)nc(-c2ccc(F)cc2)c1/C=C/[C@@H](O)C[C@@H](O)CC(=O)O [Rosuvastatin, (3R,5S,6E)-7-[4-(4-fluorophenyl)-2-(N-methylmethanesulfonamide)-6-(propan-2-yl)pyrimidin-5-yl]-3,5-dihydroxihept-6-enoic acid] | slightly soluble in water | – | – | – | – | – |
| Taffy | 600 | 10000 | 5300 | without flowability. | CC(C)c1nc(N(C)S(C)(=O)=O)nc(-c2ccc(F)cc2)c1/C=C/[C@@H](O)C[C@@H](O)CC(=O)O [rosuvastatin calcium, (3R,5S,6E)-7-[4-(4-fluorophenyl)-2-(N-methylmethanesulfonamide)-6-(propan-2-yl)pyrimidin-5-yl]-3,5-dihydroxihept-6-enoic acid] | – | 88 | It sticks to the bottom of the container. | approximately 20% | 90 | 10 |
